{"source": "patent US8192962B2", "about": "“Processes for detecting toxic substances” (Daikin Industries, Ltd., priority 2001, dated 2012)", "test_system": "Transport facilitation protein genes", "assay": "DNA chip mRNA expression in yeast, transport facilitation protein genes (Table 5)", "assay_type": "cell-based, Saccharomyces cerevisiae S288C", "description": "Yeast (Saccharomyces cerevisiae S288C (α SUC2mal mel gap2 CUP1)) were incubated at 25° C. on YPD medium (yeast extract 1%, polypepton 2%, glucose 2%). One of toxic chemical substances was added to the cells at logarithmic growth phase, and the cells were further incubated for two hours. Cells were cultured without any chemical substance in the same condition, and were used as control. Concentrations of the chemical substances were defined to inhibit the growth of the yeast but not lead to death.\nAfter completion of the incubation, the culture was centrifuged to collect the cells. To the cells, sodium acetate buffer (50 mM sodium acetate, 10 mM EDTA, 1% SDS) was added, and the mixture was shaken at 65° C. for five minutes, followed by returning to room temperature, and obtaining the supernatant, of which the procedures were repeated two times. To the supernatant, ½ amount of a solution of phenol/chloroform was added, and the mixture was centrifuged to give a supernatant, which was added with an equal amount of chloroform, and the mixture was centrifuged to give a supernatant. To the supernatant, an equal amount of isopropanol containing 0.3 M sodium acetate was added, and the mixture was allowed to stand at room temperature for 30 minutes, after which the mixture was centrifuged to give a sediment of the whole RNAs. Seventy % ethanol was added to the sediment, and the mixture was again centrifuged to give a sediment, which was then dried and dissolved in water. mRNA was isolated from the whole RNAs as followings. In view of the fact that a poly A chain is attached to the 3′ terminus of mRNA, a polynucleotide having a poly T structure which was immobilized on the surface of latex beads was used to trap the mRNA, and then the mRNA was washed and eluted with spine column (Oligotex-dT30<Super>mRNA Purification Kit, Takara). Reverse transcription of the mRNA was conducted with a reverse transcriptase (Super Script II Reverse Transcriptase; catalogue No. 18064-014, GibcoBRL) using fluorescence-labeled nucleotides to give cDNAs that were introduced with Cy3-dUTP or Cy5-dUTP during the reverse transcription.\nThe labeled cDNAs were dissolved in TE buffer (10mM Tris-HCl/1 mM EDTA, pH8.0), and the solution was dropped on the DNA chip containing the whole genes of yeast (DNA Chip Research Inc. Japan) so that the cDNAs were hybridized on the DNA chip at 65° C. for over 12 hours. The fluoresces intensity of the DNA chip was read with a scanner, and the ratio relative to the fluorescence intensity resulting from the absence of chemical substance was estimated as the following, which is shown in Tables 1 to 9: […]"}
{"compound": "[Cl][Pb][Cl]", "note": "[(4), PbCl2]", "values": [{"measurement": "The level of expressed mRNA in the presence of chemical substance/The level of expressed mRNA in the absence of chemical substance", "setting": "yeast gene YBL030C", "value": 0.9}, {"measurement": "The level of expressed mRNA in the presence of chemical substance/The level of expressed mRNA in the absence of chemical substance", "setting": "yeast gene YBL099W", "value": 1.4}, {"measurement": "The level of expressed mRNA in the presence of chemical substance/The level of expressed mRNA in the absence of chemical substance", "setting": "yeast gene YBR052C", "value": 2.6}, {"measurement": "The level of expressed mRNA in the presence of chemical substance/The level of expressed mRNA in the absence of chemical substance", "setting": "yeast gene YBR068C", "value": 2.5}, {"measurement": "The level of expressed mRNA in the presence of chemical substance/The level of expressed mRNA in the absence of chemical substance", "setting": "yeast gene YBR127C", "value": 1.1}, {"measurement": "The level of expressed mRNA in the presence of chemical substance/The level of expressed mRNA in the absence of chemical substance", "setting": "yeast gene YBR132C", "value": 1.8}, {"measurement": "The level of expressed mRNA in the presence of chemical substance/The level of expressed mRNA in the absence of chemical substance", "setting": "yeast gene YBR207W", "value": 2.0}, {"measurement": "The level of expressed mRNA in the presence of chemical substance/The level of expressed mRNA in the absence of chemical substance", "setting": "yeast gene YBR293W", "value": 1.8}, {"measurement": "The level of expressed mRNA in the presence of chemical substance/The level of expressed mRNA in the absence of chemical substance", "setting": "yeast gene YBR294W", "value": 2.6}, {"measurement": "The level of expressed mRNA in the presence of chemical substance/The level of expressed mRNA in the absence of chemical substance", "setting": "yeast gene YBR295W", "value": 1.1}, {"measurement": "The level of expressed mRNA in the presence of chemical substance/The level of expressed mRNA in the absence of chemical substance", "setting": "yeast gene YBR298C", "value": 2.3}, {"measurement": "The level of expressed mRNA in the presence of chemical substance/The level of expressed mRNA in the absence of chemical substance", "setting": "yeast gene YCL025C", "value": 1.7}, {"measurement": "The level of expressed mRNA in the presence of chemical substance/The level of expressed mRNA in the absence of chemical substance", "setting": "yeast gene YCL038C", "value": 1.6}, {"measurement": "The level of expressed mRNA in the presence of chemical substance/The level of expressed mRNA in the absence of chemical substance", "setting": "yeast gene YCR037C", "value": 0.8}, {"measurement": "The level of expressed mRNA in the presence of chemical substance/The level of expressed mRNA in the absence of chemical substance", "setting": "yeast gene YCR098C", "value": 2.0}, {"measurement": "The level of expressed mRNA in the presence of chemical substance/The level of expressed mRNA in the absence of chemical substance", "setting": "yeast gene YDL128W", "value": 1.0}, {"measurement": "The level of expressed mRNA in the presence of chemical substance/The level of expressed mRNA in the absence of chemical substance", "setting": "yeast gene YDL198C", "value": 1.4}, {"measurement": "The level of expressed mRNA in the presence of chemical substance/The level of expressed mRNA in the absence of chemical substance", "setting": "yeast gene YDL210W", "value": 1.1}, {"measurement": "The level of expressed mRNA in the presence of chemical substance/The level of expressed mRNA in the absence of chemical substance", "setting": "yeast gene YDL245C", "value": 2.2}, {"measurement": "The level of expressed mRNA in the presence of chemical substance/The level of expressed mRNA in the absence of chemical substance", "setting": "yeast gene YDR038C", "value": 0.9}, {"measurement": "The level of expressed mRNA in the presence of chemical substance/The level of expressed mRNA in the absence of chemical substance", "setting": "yeast gene YDR039C", "value": 0.9}, {"measurement": "The level of expressed mRNA in the presence of chemical substance/The level of expressed mRNA in the absence of chemical substance", "setting": "yeast gene YDR086C", "value": 1.4}, {"measurement": "The level of expressed mRNA in the presence of chemical substance/The level of expressed mRNA in the absence of chemical substance", "setting": "yeast gene YDR270W", "value": 1.3}, {"measurement": "The level of expressed mRNA in the presence of chemical substance/The level of expressed mRNA in the absence of chemical substance", "setting": "yeast gene YDR298C", "value": 1.3}, {"measurement": "The level of expressed mRNA in the presence of chemical substance/The level of expressed mRNA in the absence of chemical substance", "setting": "yeast gene YDR342C", "value": 5.7}, {"measurement": "The level of expressed mRNA in the presence of chemical substance/The level of expressed mRNA in the absence of chemical substance", "setting": "yeast gene YDR343C", "value": 4.6}, {"measurement": "The level of expressed mRNA in the presence of chemical substance/The level of expressed mRNA in the absence of chemical substance", "setting": "yeast gene YDR345C", "value": 2.6}, {"measurement": "The level of expressed mRNA in the presence of chemical substance/The level of expressed mRNA in the absence of chemical substance", "setting": "yeast gene YDR387C", "value": 2.2}, {"measurement": "The level of expressed mRNA in the presence of chemical substance/The level of expressed mRNA in the absence of chemical substance", "setting": "yeast gene YDR497C", "value": 1.3}, {"measurement": "The level of expressed mRNA in the presence of chemical substance/The level of expressed mRNA in the absence of chemical substance", "setting": "yeast gene YEL027W", "value": 1.1}, {"measurement": "The level of expressed mRNA in the presence of chemical substance/The level of expressed mRNA in the absence of chemical substance", "setting": "yeast gene YEL063C", "value": 1.3}, {"measurement": "The level of expressed mRNA in the presence of chemical substance/The level of expressed mRNA in the absence of chemical substance", "setting": "yeast gene YEL065W", "value": 0.4}, {"measurement": "The level of expressed mRNA in the presence of chemical substance/The level of expressed mRNA in the absence of chemical substance", "setting": "yeast gene YER053C", "value": 1.7}, {"measurement": "The level of expressed mRNA in the presence of chemical substance/The level of expressed mRNA in the absence of chemical substance", "setting": "yeast gene YFL011W", "value": 3.3}, {"measurement": "The level of expressed mRNA in the presence of chemical substance/The level of expressed mRNA in the absence of chemical substance", "setting": "yeast gene YFL041W", "value": 1.2}, {"measurement": "The level of expressed mRNA in the presence of chemical substance/The level of expressed mRNA in the absence of chemical substance", "setting": "yeast gene YFL050C", "value": 2.2}, {"measurement": "The level of expressed mRNA in the presence of chemical substance/The level of expressed mRNA in the absence of chemical substance", "setting": "yeast gene YFL054C", "value": 2.2}, {"measurement": "The level of expressed mRNA in the presence of chemical substance/The level of expressed mRNA in the absence of chemical substance", "setting": "yeast gene YGL006W", "value": 2.6}, {"measurement": "The level of expressed mRNA in the presence of chemical substance/The level of expressed mRNA in the absence of chemical substance", "setting": "yeast gene YGL008C", "value": 0.9}, {"measurement": "The level of expressed mRNA in the presence of chemical substance/The level of expressed mRNA in the absence of chemical substance", "setting": "yeast gene YGL104C", "value": 1.8}, {"measurement": "The level of expressed mRNA in the presence of chemical substance/The level of expressed mRNA in the absence of chemical substance", "setting": "yeast gene YGL167C", "value": 1.3}, {"measurement": "The level of expressed mRNA in the presence of chemical substance/The level of expressed mRNA in the absence of chemical substance", "setting": "yeast gene YGL255W", "value": 0.8}, {"measurement": "The level of expressed mRNA in the presence of chemical substance/The level of expressed mRNA in the absence of chemical substance", "setting": "yeast gene YGR055W", "value": 0.7}, {"measurement": "The level of expressed mRNA in the presence of chemical substance/The level of expressed mRNA in the absence of chemical substance", "setting": "yeast gene YGR065C", "value": 1.1}, {"measurement": "The level of expressed mRNA in the presence of chemical substance/The level of expressed mRNA in the absence of chemical substance", "setting": "yeast gene YGR082W", "value": 1.0}, {"measurement": "The level of expressed mRNA in the presence of chemical substance/The level of expressed mRNA in the absence of chemical substance", "setting": "yeast gene YGR096W", "value": 4.6}, {"measurement": "The level of expressed mRNA in the presence of chemical substance/The level of expressed mRNA in the absence of chemical substance", "setting": "yeast gene YGR138C", "value": 1.2}, {"measurement": "The level of expressed mRNA in the presence of chemical substance/The level of expressed mRNA in the absence of chemical substance", "setting": "yeast gene YGR191W", "value": 1.5}, {"measurement": "The level of expressed mRNA in the presence of chemical substance/The level of expressed mRNA in the absence of chemical substance", "setting": "yeast gene YGR197C", "value": 1.0}, {"measurement": "The level of expressed mRNA in the presence of chemical substance/The level of expressed mRNA in the absence of chemical substance", "setting": "yeast gene YGR224W", "value": 1.2}]}
